Data on 25 compounds can be found in patent publication US7932262B2 (Novartis AG, priority 2006, dated 2011).

The term IC50 denotes the concentration that gives 50% inhibition.

For one assay, the target named is T1, PDK1 kinase (Homo sapiens, UniProt O15530).
T1 sequence (O15530 1-556): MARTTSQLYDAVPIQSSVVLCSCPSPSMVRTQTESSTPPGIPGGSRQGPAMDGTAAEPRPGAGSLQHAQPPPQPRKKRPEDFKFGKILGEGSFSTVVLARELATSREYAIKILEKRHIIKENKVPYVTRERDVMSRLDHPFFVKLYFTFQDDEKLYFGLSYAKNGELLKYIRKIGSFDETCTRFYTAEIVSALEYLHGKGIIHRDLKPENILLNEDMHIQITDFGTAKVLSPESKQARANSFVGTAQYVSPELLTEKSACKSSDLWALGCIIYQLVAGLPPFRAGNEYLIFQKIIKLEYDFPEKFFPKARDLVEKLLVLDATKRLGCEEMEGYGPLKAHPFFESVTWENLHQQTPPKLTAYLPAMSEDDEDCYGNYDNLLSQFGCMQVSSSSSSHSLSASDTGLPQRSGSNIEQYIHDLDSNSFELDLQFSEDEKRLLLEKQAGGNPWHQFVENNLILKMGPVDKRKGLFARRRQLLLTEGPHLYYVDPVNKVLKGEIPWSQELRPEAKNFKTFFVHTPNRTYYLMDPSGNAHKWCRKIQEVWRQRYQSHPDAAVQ
The experiment in a line: PDK1 Kinase Alpha Screen Assay. It counts as biochemical. The conditions noted are these: PDK1 Kinase Alpha Screen Assay; read-out: PDK1 IC50. In outline: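 AlphaScreen readout: phospho-peptide captured by phospho-(Ser/Thr) PKA substrate antibody (0.3 mg/ml) on protein A acceptor beads, biotin peptide on streptavidin donor beads (25 μg/ml each), overnight at room temperature. Kinase step used 50 nM PDK1-4 peptide, 10 uM ATP, 3-18 hours.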

For the next assay, the system named is A2780 cells. The experiment in a line: Cell Proliferation Assay (Cell Titer Glo), A2780. Type of assay: cell-based. The conditions noted are these: Homo sapiens, read-out: CPEC50 A2780. A digest of the protocol: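 Following a 3-day compound exposure (37° C., 5% CO2) of A2780 or PC3MM cells plated at 1000 per well, viability was measured by Cell Titer Glo luminescence in fresh medium, read 10 min after reagent addition.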
(In general: Cellular ATP, detected with luciferase, serves as a proxy for viable cell number.)

The mark [1] stands for this setting: Cell Proliferation Assay, A2780.
Where [2] appears, read: cell proliferation, A2780 cells.

Like-named read-outs stand apart in the source and are kept apart here.

As to `NS(=O)(=O)c1ccc(Nc2ncc3cccc(C(=O)O)c3n2)cc1` [Compound 622, 2-(4-sulfamoylphenylamino)quinazoline-8-carboxylic acid], the IC50 on PDK1 kinase is 5 to 10 µM. Also, the EC50 in the assay with A2780 cells (setting [1]) is 5 to 10 µM.

Take `CC(C)NC(=O)c1cccc2cnc(Nc3ccc(S(N)(=O)=O)cc3)nc12` [Compound 624, N-isopropyl-2-(4-sulfamoylphenylamino)quinazoline-8-carboxamide]: the IC50 on PDK1 kinase was < 5 µM. Moreover, in the assay with A2780 cells (setting [1]), the EC50 is < 5 µM.

In the case of `NC(=O)c1ccc(COc2cccc3cnc(Nc4ccc(S(N)(=O)=O)cc4)nc23)cc1` [Compound 628, 4-((2-(4-sulfamoylphenylamino)quinazolin-8-yloxy)methyl)benzamide], the IC50 on PDK1 kinase is < 5 µM. Besides, the EC50 with A2780 cells (setting [1]) fell in the range of 5 to 10 µM.

`COc1ccc2cnc(Nc3ccc(S(N)(=O)=O)cc3)nc2c1` [Compound 629, 4-(7-methoxyquinazolin-2-ylamino)benzenesulfonamide]: the IC50 at PDK1 kinase is < 5 µM. Besides, the EC50 in the assay on A2780 cells (setting [1]) was < 5 µM.

As to `CN(C)CCOc1ccc2cnc(Nc3ccc(S(N)(=O)=O)cc3)nc2c1` [Compound 630, 4-(7-(2-(dimethylamino)ethoxy)quinazolin-2-ylamino)benzenesulfonamide], the IC50 on PDK1 kinase is < 5 µM. Besides, in the assay with A2780 cells (setting [1]), the EC50 was in the range of 5 to 10 µM.

As to `NS(=O)(=O)c1ccc(Nc2ncc3ccc(OCC4CCNCC4)cc3n2)cc1` [Compound 631, 4-(7-(piperidin-4-ylmethoxy)quinazolin-2-ylamino)benzenesulfonamide], the IC50 at PDK1 kinase is < 5 µM. The EC50 in the assay on A2780 cells (setting [1]) is < 5 µM.

Regarding `NS(=O)(=O)c1ccc(Nc2ncc3ccc(OCCC4CCNCC4)cc3n2)cc1` [Compound 632, 4-(7-(2-(piperidin-4-yl)ethoxy)quinazolin-2-ylamino)benzenesulfonamide], the half-inhibitory concentration (IC50) at PDK1 kinase is < 5 µM. In the assay on A2780 cells (setting [1]), the EC50 is < 5 µM.

For the compound `CC(C)Cn1cc(-c2ccc3cnc(Nc4ccc(S(N)(=O)=O)cc4)nc3c2)cn1` [Compound 849, 4-(7-(1-isobutyl-1H-pyrazol-4-yl)quinazolin-2-ylamino)benzenesulfonamide], the IC50 on PDK1 kinase was < 5 µM. Moreover, in the assay with A2780 cells (setting [2]), the EC50 is < 5 µM.

As to `NS(=O)(=O)c1ccc(Nc2ncc3ccc(-c4ccnc(NCCN5CCCC5)c4)cc3n2)cc1` [Compound 850, 4-(7-(2-(2-(pyrrolidin-1-yl)ethylamino)pyridin-4-yl)quinazolin-2-ylamino)benzenesulfonamide], the 50% inhibitory concentration (IC50) on PDK1 kinase was < 5 µM. Moreover, the EC50 with A2780 cells (setting [2]) lay in the range of 5 to 10 µM.

Turning to `NS(=O)(=O)c1ccc(Nc2ncc3ccc(-c4ccnc(N5CCCC5)c4)cc3n2)cc1` [Compound 851, 4-(7-(2-(pyrrolidin-1-yl)pyridin-4-yl)quinazolin-2-ylamino)benzenesulfonamide], on PDK1 kinase, the 50% inhibitory concentration (IC50) fell in the range of 5 to 10 µM. Moreover, in the assay on A2780 cells (setting [2]), the EC50 was < 5 µM.

In the case of `NS(=O)(=O)c1ccc(Nc2ncc3ccc(-c4ccnc(N5CCOCC5)c4)cc3n2)cc1` [Compound 852, 4-(7-(2-morpholinopyridin-4-yl)quinazolin-2-ylamino)benzenesulfonamide], the concentration for half-maximal inhibition (IC50) at PDK1 kinase was < 5 µM. The EC50 in the assay with A2780 cells (setting [2]) was < 5 µM.

For the compound `NS(=O)(=O)c1ccc(Nc2ncc3ccc(-c4cccnc4)c(OC4CCNCC4)c3n2)cc1` [Compound 853, 4-(8-(piperidin-4-yloxy)-7-(pyridin-3-yl)quinazolin-2-ylamino)benzenesulfonamide], at PDK1 kinase, the IC50 is < 5 µM. In addition, the EC50 in the assay on A2780 cells (setting [2]) was < 5 µM.

In the case of `NC(=O)c1ccc(-c2ccc3cnc(Nc4ccc(S(N)(=O)=O)cc4)nc3c2OC2CCNCC2)cc1` [Compound 854, 4-(8-(piperidin-4-yloxy)-2-(4-sulfamoylphenylamino)quinazolin-7-yl)benzamide], on PDK1 kinase, the IC50 is < 5 µM. Also, the EC50 in the assay with A2780 cells (setting [2]) lay within 5 to 10 µM.

Consider `NS(=O)(=O)c1ccc(Nc2ncc3ccc(-c4ccncc4)c(OC4CCNCC4)c3n2)cc1` [Compound 855, 4-(8-(piperidin-4-yloxy)-7-(pyridin-4-yl)quinazolin-2-ylamino)benzenesulfonamide], for which the IC50 at PDK1 kinase is < 5 µM. In the assay on A2780 cells (setting [2]), the EC50 lay within 5 to 10 µM.

`Nc1ccc(-c2ccc3cnc(Nc4ccc(S(N)(=O)=O)cc4)nc3c2OC2CCNCC2)cn1` [Compound 856, 4-(7-(6-aminopyridin-3-yl)-8-(piperidin-4-yloxy)quinazolin-2-ylamino)benzenesulfonamide]: the IC50 on PDK1 kinase is < 5 µM. Moreover, the EC50 with A2780 cells (setting [2]) was < 5 µM.

As to `Nc1ncc(-c2ccc3cnc(Nc4ccc(S(N)(=O)=O)cc4)nc3c2OC2CCNCC2)cn1` [Compound 857, 4-(7-(2-aminopyrimidin-5-yl)-8-(piperidin-4-yloxy)quinazolin-2-ylamino)benzenesulfonamide], the concentration for half-maximal inhibition (IC50) on PDK1 kinase is < 5 µM. The EC50 with A2780 cells (setting [2]) lay within 5 to 10 µM.

Take `COc1cncc(-c2ccc3cnc(Nc4ccc(S(N)(=O)=O)cc4)nc3c2OC2CCNCC2)c1` [Compound 858, 4-(7-(5-methoxypyridin-3-yl)-8-(piperidin-4-yloxy)quinazolin-2-ylamino)benzenesulfonamide]: the IC50 on PDK1 kinase was < 5 µM. Moreover, the EC50 in the assay with A2780 cells (setting [2]) was < 5 µM.

On to `NS(=O)(=O)c1ccc(Nc2ncc3ccc(-c4cn[nH]c4)c(OC4CCNCC4)c3n2)cc1` [Compound 859, 4-(8-(piperidin-4-yloxy)-7-(1H-pyrazol-4-yl)quinazolin-2-ylamino)benzenesulfonamide], for which, on PDK1 kinase, the half-maximal inhibitory concentration (IC50) was < 5 µM. In addition, in the assay on A2780 cells (setting [2]), the EC50 is < 5 µM.

In the case of `Cn1cc(-c2ccc3cnc(Nc4ccc(S(N)(=O)=O)cc4)nc3c2OC2CCNCC2)cn1` [Compound 860, 4-(7-(1-methyl-1H-pyrazol-4-yl)-8-(piperidin-4-yloxy)quinazolin-2-ylamino)benzenesulfonamide], at PDK1 kinase, the IC50 is < 5 µM. In addition, in the assay on A2780 cells (setting [2]), the EC50 is < 5 µM.

Turning to `NS(=O)(=O)c1ccc(Nc2ncc3ccc(-c4ncco4)c(OC4CCNCC4)c3n2)cc1` [Compound 861, 4-(7-(oxazol-2-yl)-8-(piperidin-4-yloxy)quinazolin-2-ylamino)benzenesulfonamide], the IC50 at PDK1 kinase was < 5 µM. The EC50 in the assay on A2780 cells (setting [2]) was < 5 µM.

As to `NS(=O)(=O)c1ccc(Nc2ncc3ccc(-c4nccs4)c(OC4CCNCC4)c3n2)cc1` [Compound 862, 4-(8-(piperidin-4-yloxy)-7-(thiazol-2-yl)quinazolin-2-ylamino)benzenesulfonamide], at PDK1 kinase, the IC50 was < 5 µM. In the assay on A2780 cells (setting [2]), the EC50 is < 5 µM.

For `NS(=O)(=O)c1ccc(Nc2ncc3ccc(-c4ccccn4)c(OC4CCNCC4)c3n2)cc1` [Compound 863, 4-(8-(piperidin-4-yloxy)-7-(pyridin-2-yl)quinazolin-2-ylamino)benzenesulfonamide], the half-maximal inhibitory concentration (IC50) at PDK1 kinase is < 5 µM. In the assay with A2780 cells (setting [2]), the EC50 is < 5 µM.

Take `N#Cc1ccc2cnc(Nc3ccc(S(N)(=O)=O)cc3)nc2c1OC1CCNCC1` [Compound 864, 4-(7-cyano-8-(piperidin-4-yloxy)quinazolin-2-ylamino)benzenesulfonamide]: the IC50 on PDK1 kinase is < 5 µM. Besides, the EC50 with A2780 cells (setting [2]) is < 5 µM.

With `Cc1n[nH]c(C)c1-c1ccc2cnc(Nc3ccc(S(N)(=O)=O)cc3)nc2c1` [Compound 865, 4-(7-(3,5-dimethyl-1H-pyrazol-4-yl)quinazolin-2-ylamino)benzenesulfonamide], the IC50 at PDK1 kinase is < 5 µM. Further, in the assay on A2780 cells (setting [2]), the EC50 is < 5 µM.

As for `NS(=O)(=O)c1ccc(Nc2ncc3ccc(-c4cnoc4)cc3n2)cc1` [Compound 866, 4-(7-(isoxazol-4-yl)quinazolin-2-ylamino)benzenesulfonamide], at PDK1 kinase, the half-maximal inhibitory concentration (IC50) was < 5 µM. For the same compound, the EC50 with A2780 cells (setting [2]) is < 5 µM.
